According to patent US20200077655A1, “Use of an Acyclic Picolinamide Compound as a Fungicide for Control of Phytopathogenic Fungi in Orchard, Vineyard and Plantation Crops” (Dow AgroSciences LLC, priority 2017, published 2020):

How the values were obtained:
Format in all cases: in vivo
[1] = tested on: Mycosphaerella fijiensis (MYCOFI); assay: Field assessment of black sigatoka on banana; conditions: bananas; for Area Under Disease Progression Curve (AUDPC) from severity assessments: 52-59 days after application; for Percent control calculated from severity percentage: 52 days after application
Protocol: Aliquots of a 5% EC formulation of compound I were diluted with water and mixed with Spraytex CT mineral oil (6 L CP/Ha) to achieve active ingredient rates of 25, 50, 100 and 150 g ai/Ha. These treatments were delivered to the foliar affected area of single leaves (application volume of 40 L/Ha) by means of an Aerograph spayer through a plastic molding with an application area of 9×12 centimeters. A single application was delivered to leaf 1 (preventive and very early curative), and leaf 3 (curative effect). Experimental design was based on a randomized complete block, and 4 replications. MYCOFI symptoms resulted from natural inoculation and epidemic development.
Percent disease control was calculated using the ratio of disease severity on treated leaves relative to untreated leaves. Black sigatoka infection was assessed five times during the trial: 31 days after application (31DAA), 38DAA, 45DAA, 52DAA and 59DAA. Area under the disease progress curve (AUDPC) was calculated for each plot using the sets of recorded severity data. Relative AUDPC (% control based on AUDPC) was calculated as percent of the nontreated control.

[2] = tested on: Botrytis cinerea (BOTRCI); assay: Field assessment of gray mold on grapevine
Text: On grapevine: A fungicidal treatment containing Compound I, applied in a 5% EC formulation and tank mixed with an adjuvant (Trycol, 50% w/w at 0.2% v/v), was sprayed only on the bunch portion of grape plants (VITVI, Pinot grey variety) at rates of 50, 150 and 200 grams of active ingredient per hectare (g ai/ha). The trial was based on two applications 28 days apart in open field conditions with disease inoculation 3 days after the last application (plant growth stage B83). The treatment was part of an experimental trial designed as a randomized complete block with four replications and a plot of approximately 2.5×7.0 m. Formulations of compound I were applied at water volume of 500 L/ha (bunches only), using a backpack plot sprayer ([…], Solo 433; Airatom nozzle). Disease severity was recorded as a percentage of incidence and infection of damaged bunches on a random sample of 100 bunches per plot. Gray mold infection was assessed three times, the first at 22 days after the last application (22DAAB), the second and third at 28DAAB and 36DAAB. Area under the disease progress curve (AUDPC) was calculated for each plot using the sets of recorded severity data. Relative AUDPC (% control based on AUDPC) was calculated as percent of the nontreated control.

[3] = tested on: Cladosporium carpopilum (CLADSP); assay: Field assessment of almond scab; conditions: almond nut incidence, 121 DAAA
Text: A fungicidal treatment containing Compound I, applied in an SC formulation (MSO built-in) and tank mixed with an adjuvant (Agnique BP-420, 50% w/w at 0.2% v/v or Adsee C80W 80%), was sprayed as a single application on almond trees (PRNDU, Winter variety) at rates of 60, 120, 150, and 180 g ai/ha. The experimental plots were run with natural infestation. The treatment was part of an experimental trial designed as a randomized complete block (RCB) with three replications and a plot of approximately 16×22 ft. Compound I was applied at water volume of 100 gal/acre, using a Mistblower sprayer (Orifice nozzle 2.3 setting).
Nut incidence (number of visual diseased nuts per 10 nuts per tree on whole plot) was assessed 121 days after application A (121 DAAA). Using Abbotts, % nut incidence of the treatments was used vs the nontreated to calculate % control.

[4] = tested on: Monilinia fructicola (MONIFC); assay: Field microplot assessment on brown rot on peaches; conditions: field grown peaches, 17 days after first application
Text: A field trial assessing the utility of Compound I on rot diseases of stone fruits was also done on peaches using a microplot method, part of an experimental trial designed as a randomized complete block with four replications. In a microplot method, two mature fruits on a single branch or cluster of fruits were selected for each replication (for a total of 10 replications) instead of using an entire replication. Colored flagging identified treatments. One day before the first application, a ZipLoc plastic bag was placed over the fruit or fruit cluster and an inoculation mix of MONIFC was sprayed inside covering the fruits. The plastic bags were removed after 24 hours. After 24 hr, fungicidal treatments containing Compound I, applied in a 5% EC formulation and tank mixed with an adjuvant (Trycol, 50% w/w at 0.2% v/v), were then sprayed twice on peaches (PRNPS) at rates of 50, 100, and 150 grams of active ingredient per hectare (g ai/ha). The applications to the selected mature peaches were done at 14 and 7 days before harvest using a CO2 powered inoculation spray gun at a water volume of 500 L/ha. At harvest, the fruits were collected in the field and placed in plastic Tupperware containers. 150 mL of de-ionized water was poured in the bottom of the Tupperware containers and the fruits were sprayed with a light mist of water. The containers were brought to the lab, enclosed in a large trash bag to keep the humidity high, and incubated on a lab bench at approximately 23° C. The percentage of visual disease incidence and severity was assessed during the trial at 17 days after the first application.

COc1ccnc(C(=O)N[C@@H](C)C(=O)O[C@@H](C)C(c2ccc(F)cc2)c2ccc(F)cc2)c1OC(C)=O [Compound I, (S)-1,1-bis(4-fluorophenyl)propan-2-yl (3-acetoxy-4-methoxypicolinoyl)-L-alaninate]
Area Under Disease Progression Curve (AUDPC) from severity assessments ([1]; Leaf 1 (Preventive), 25 g ai/ha, untreated 665): 198
Percent control calculated from severity percentage ([1]; Leaf 1 (Preventive), 25 g ai/ha): B (51-75)
Area Under Disease Progression Curve (AUDPC) from severity assessments ([1]; Leaf 1 (Preventive), 50 g ai/ha, untreated 665): 211
Percent control calculated from severity percentage ([1]; Leaf 1 (Preventive), 50 g ai/ha): B (51-75)
Area Under Disease Progression Curve (AUDPC) from severity assessments ([1]; Leaf 1 (Preventive), 100 g ai/ha, untreated 665): 203
Percent control calculated from severity percentage ([1]; Leaf 1 (Preventive), 100 g ai/ha): B (51-75)
Area Under Disease Progression Curve (AUDPC) from severity assessments ([1]; Leaf 1 (Preventive), 150 g ai/ha, untreated 665): 183
Percent control calculated from severity percentage ([1]; Leaf 1 (Preventive), 150 g ai/ha): B (51-75)
Area Under Disease Progression Curve (AUDPC) from severity assessments ([1]; Leaf 3 (Curative), 25 g ai/ha, untreated 464): 357
Percent control calculated from severity percentage ([1]; Leaf 3 (Curative), 25 g ai/ha): C (26-50)
Area Under Disease Progression Curve (AUDPC) from severity assessments ([1]; Leaf 3 (Curative), 50 g ai/ha, untreated 464): 317
Percent control calculated from severity percentage ([1]; Leaf 3 (Curative), 50 g ai/ha): C (26-50)
Area Under Disease Progression Curve (AUDPC) from severity assessments ([1]; Leaf 3 (Curative), 100 g ai/ha, untreated 464): 289
Percent control calculated from severity percentage ([1]; Leaf 3 (Curative), 100 g ai/ha): C (26-50)
Area Under Disease Progression Curve (AUDPC) from severity assessments ([1]; Leaf 3 (Curative), 150 g ai/ha, untreated 464): 293
Percent control calculated from severity percentage ([1]; Leaf 3 (Curative), 150 g ai/ha): C (26-50)
Percent control (AUDPC) from fruit infection assessments ([2]; 50 g ai/ha): B (51-75)
Percent control (AUDPC) from fruit infection assessments ([2]; 150 g ai/ha): A (76-100)
Percent control (AUDPC) from fruit infection assessments ([2]; 200 g ai/ha): A (76-100)
Calc Percent Control of CLADSP ([3]; 60 g ai/ha, Agnique BP420, 240 mL/ha): 47.3%
Calc Percent Control of CLADSP ([3]; 60 g ai/ha, MSO, 120 g ai/ha): 61.8%
Calc Percent Control of CLADSP ([3]; 120 g ai/ha, Agnique BP420, 480 mL/ha): 68.2%
Calc Percent Control of CLADSP ([3]; 120 g ai/ha, MSO, 240 g ai/ha): 97.0%
Calc Percent Control of CLADSP ([3]; 150 g ai/ha, Agnique BP420, 600 mL/ha): 69.7%
Calc Percent Control of CLADSP ([3]; 150 g ai/ha, MSO, 300 g ai/ha): 55.1%
Calc Percent Control of CLADSP ([3]; 180 g ai/ha, Agnique BP420, 720 mL/ha): 90.9%
Calc Percent Control of CLADSP ([3]; 180 g ai/ha, MSO, 360 g ai/ha): 39.5%
MONIFC, percentage of area affected on peaches (Severity) ([4]; 50 g ai/ha): 87.3%
MONIFC, percentage of area affected on peaches (Severity) ([4]; 100 g ai/ha): 57.0%
MONIFC, percentage of area affected on peaches (Severity) ([4]; 150 g ai/ha): 69.5%
